Values joined by “and” are separate entries in the source; they are usually repeats but may differ in a detail not shown here. Equal entries are not always repeated. Where two headings read alike, the source gives them in different places.
Target: hCB2 (Homo sapiens, UniProt P34972)
Assay: bioSensAll ebBRET signaling profiling, hCB2
Format: cell-based
Design: host or cells: HEK293SL cells, transient PEI transfection
Conditions: for G15 hCB2 / Gq hCB2 / Gs hCB2 / G13 hCB2: raw signal; for EC50: read-out: EC50 [95% CI]; for Emax: normalized to CP-55,940

hCB2, sequence (P34972 whole entry): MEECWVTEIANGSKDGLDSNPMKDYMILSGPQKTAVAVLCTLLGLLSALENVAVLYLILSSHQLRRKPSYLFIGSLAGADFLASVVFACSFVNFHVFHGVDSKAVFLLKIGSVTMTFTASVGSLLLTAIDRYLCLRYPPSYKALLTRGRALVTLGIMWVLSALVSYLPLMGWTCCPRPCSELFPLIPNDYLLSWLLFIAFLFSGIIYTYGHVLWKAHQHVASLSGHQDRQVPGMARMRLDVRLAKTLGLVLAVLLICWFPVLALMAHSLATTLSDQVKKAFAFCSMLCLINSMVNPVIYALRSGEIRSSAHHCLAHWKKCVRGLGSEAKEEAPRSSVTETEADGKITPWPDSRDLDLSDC

`COC(=O)[C@@](C)(NC(=O)c1cc(C)n(-c2cccc(C(F)(F)F)c2)n1)c1cccs1` [‘1350] was tested, and the “G15 hCB2” value (Log [Compound] (M) -5.05788) was 909, the “Gq hCB2” value (Log [Compound] (M) -5.05788) was 1907 and the “Gs hCB2” value (Log [Compound] (M) -5.05788) was 9135. The “G13 hCB2” value (Log [Compound] (M) -5.47381) was 332, the “G15 hCB2” value (Log [Compound] (M) -5.47381) was 938 and the “Gq hCB2” value (Log [Compound] (M) -5.47381) was 1876. The “Gs hCB2” value (Log [Compound] (M) -5.47381) was 8949, the “G13 hCB2” value (Log [Compound] (M) -5.89285) was 339 and the “G15 hCB2” value (Log [Compound] (M) -5.89285) was 882. The “Gq hCB2” value (Log [Compound] (M) -5.89285) was 1888, the “Gs hCB2” value (Log [Compound] (M) -5.89285) was 8825 and the “G13 hCB2” value (Log [Compound] (M) -6.31878) was 340. For the same compound, the “G15 hCB2” value (Log [Compound] (M) -6.31878) was 867, the “Gq hCB2” value (Log [Compound] (M) -6.31878) was 1817 and the “Gs hCB2” value (Log [Compound] (M) -6.31878) was 8693. The “G13 hCB2” value (Log [Compound] (M) -6.72585) was 337, the “G15 hCB2” value (Log [Compound] (M) -6.72585) was 945 and the “Gq hCB2” value (Log [Compound] (M) -6.72585) was 1883. The “Gs hCB2” value (Log [Compound] (M) -6.72585) was 8781, the “G13 hCB2” value (Log [Compound] (M) -7.14267) was 379 and the “G15 hCB2” value (Log [Compound] (M) -7.14267) was 858. The “Gq hCB2” value (Log [Compound] (M) -7.14267) was 1709, the “Gs hCB2” value (Log [Compound] (M) -7.14267) was 8728 and the “G13 hCB2” value (Log [Compound] (M) -7.55284) was 353. For the same compound, the “G15 hCB2” value (Log [Compound] (M) -7.55284) was 904, the “Gq hCB2” value (Log [Compound] (M) -7.55284) was 1791 and the “Gs hCB2” value (Log [Compound] (M) -7.55284) was 8935. For the same compound, the “G13 hCB2” value (Log [Compound] (M) -8) was 375, the “G15 hCB2” value (Log [Compound] (M) -8) was 912 and the “Gq hCB2” value (Log [Compound] (M) -8) was 1812. The “Gs hCB2” value (Log [Compound] (M) -8) was 8658, the “G13 hCB2” value (Log [Compound] (M) -8.22186) was 364 and the “G15 hCB2” value (Log [Compound] (M) -8.22186) was 883. For the same compound, the “Gq hCB2” value (Log [Compound] (M) -8.22186) was 1883, the “Gs hCB2” value (Log [Compound] (M) -8.22186) was 9640 and the “G13 hCB2” value (Log [Compound] (M) -8.39794) was 287. The “G15 hCB2” value (Log [Compound] (M) -8.39794) was 753, the “Gq hCB2” value (Log [Compound] (M) -8.39794) was 1844 and the “Gs hCB2” value (Log [Compound] (M) -8.39794) was 8340. The “G13 hCB2” value (Log [Compound] (M) -8.68787) was 322, the “G15 hCB2” value (Log [Compound] (M) -8.68787) was 851 and the “Gq hCB2” value (Log [Compound] (M) -8.68787) was 1882. The “Gs hCB2” value (Log [Compound] (M) -8.68787) was 8911, the “G13 hCB2” value (Log [Compound] (M) -9.15521) was 356 and the “G15 hCB2” value (Log [Compound] (M) -9.15521) was 841. The “Gq hCB2” value (Log [Compound] (M) -9.15521) was 1859, the “Gs hCB2” value (Log [Compound] (M) -9.15521) was 8948 and the “G13 hCB2” value (Log [Compound] (M) -9.61989) was 303. The “G15 hCB2” value (Log [Compound] (M) -9.61989) was 888, the “Gq hCB2” value (Log [Compound] (M) -9.61989) was 1906 and the “Gs hCB2” value (Log [Compound] (M) -9.61989) was 8984. The “G13 hCB2” value (Log [Compound] (M) -10.0969) was 348, the “G15 hCB2” value (Log [Compound] (M) -10.0969) was 956 and the “Gq hCB2” value (Log [Compound] (M) -10.0969) was 1853. The “Gs hCB2” value (Log [Compound] (M) -10.0969) was 9066, the “G13 hCB2” value (Log [Compound] (M) -10.5529) was 333 and the “G15 hCB2” value (Log [Compound] (M) -10.5529) was 902. For the same compound, the “Gq hCB2” value (Log [Compound] (M) -10.5529) was 1805, the “Gs hCB2” value (Log [Compound] (M) -10.5529) was 9374 and the “G13 hCB2” value (Log [Compound] (M) -11.0177) was 340. The “G15 hCB2” value (Log [Compound] (M) -11.0177) was 939, the “Gq hCB2” value (Log [Compound] (M) -11.0177) was 1690 and the “Gs hCB2” value (Log [Compound] (M) -11.0177) was 9100. For the same compound, the “G13 hCB2” value (Log [Compound] (M) -11.4949) was 323, the “G15 hCB2” value (Log [Compound] (M) -11.4949) was 868 and the “Gq hCB2” value (Log [Compound] (M) -11.4949) was 1776. The “Gs hCB2” value (Log [Compound] (M) -11.4949) was 8459, the “G13 hCB2” value (Log [Compound] (M) -11.9208) was 343 and the “G15 hCB2” value (Log [Compound] (M) -11.9208) was 862. For the same compound, the “Gq hCB2” value (Log [Compound] (M) -11.9208) was 1776, the “Gs hCB2” value (Log [Compound] (M) -11.9208) was 9036 and the “G13 hCB2” value (Log [Compound] (M) -12.3979) was 327. For the same compound, the “G15 hCB2” value (Log [Compound] (M) -12.3979) was 871, the “Gq hCB2” value (Log [Compound] (M) -12.3979) was 1850 and the “Gs hCB2” value (Log [Compound] (M) -12.3979) was 8912. For the same compound, the “G13 hCB2” value (Log [Compound] (M) -12.8861) was 293, the “G15 hCB2” value (Log [Compound] (M) -12.8861) was 841 and the “Gq hCB2” value (Log [Compound] (M) -12.8861) was 1768. The “Gs hCB2” value (Log [Compound] (M) -12.8861) was 8754, the “G13 hCB2” value (Log [Compound] (M) -13) was 352 and 368 and the “G15 hCB2” value (Log [Compound] (M) -13) was 772 and 852. The “Gq hCB2” value (Log [Compound] (M) -13) was 1940 and 1790, the “Gs hCB2” value (Log [Compound] (M) -13) was 8891 and 8980 and the EC50 (hCB2 Barr2 + GRK2) was 4.2 nM. It also gave an EC50 (hCB2 Gi2) of 1.6 nM, an EC50 (hCB2 GoB) of 2.6 nM and an EC50 (hCB2 Gz) of 2.6 nM. For the same compound, the Emax (read-out: Emax [95% CI], hCB2 Barr2 + GRK2) was 30%, the Emax (read-out: Emax [95% CI], hCB2 Gi1) was 74% and the Emax (read-out: Emax [95% CI], hCB2 Gi2) was 61%. For the same compound, the Emax (read-out: Emax [95% CI], hCB2 GoB) was 59% and the Emax (read-out: Emax [95% CI], hCB2 Gz) was 52%.
